Reference: PMC3865801 (Journal of Medicinal Chemistry, 2013)
Where two headings read alike, the source gives them in different places.

What was measured:
[1] = molecular target: T1, purified recombinant perforin (Mus musculus, UniProt P10820); test: cell-based; type: cell-based; conditions: lysis of Jurkat cells by purified recombinant perforin, 51Cr release, 0.1% BSA; average of at least three determinations; read-out: inhibition of Jurkat cell lysis, IC50
T1 sequence (P10820 21-554): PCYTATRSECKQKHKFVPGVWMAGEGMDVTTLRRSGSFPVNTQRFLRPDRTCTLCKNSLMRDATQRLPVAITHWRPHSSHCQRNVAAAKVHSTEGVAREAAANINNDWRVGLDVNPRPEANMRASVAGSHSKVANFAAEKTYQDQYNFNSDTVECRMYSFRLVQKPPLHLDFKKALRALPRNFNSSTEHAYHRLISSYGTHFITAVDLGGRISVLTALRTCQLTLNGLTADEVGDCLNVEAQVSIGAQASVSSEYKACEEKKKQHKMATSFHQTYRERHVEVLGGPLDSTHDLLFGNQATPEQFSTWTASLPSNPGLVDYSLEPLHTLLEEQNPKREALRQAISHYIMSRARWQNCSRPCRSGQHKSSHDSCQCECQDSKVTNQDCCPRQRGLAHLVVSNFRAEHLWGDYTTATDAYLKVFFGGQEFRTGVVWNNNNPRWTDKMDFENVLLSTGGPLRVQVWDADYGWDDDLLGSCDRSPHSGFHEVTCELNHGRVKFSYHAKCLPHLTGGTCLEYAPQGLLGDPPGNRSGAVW
Method: The ability of the compounds to inhibit the lysis of nucleated (Jurkat T lymphoma) cells in the presence of 0.1% BSA was measured by release of ^51Cr label. Jurkat target cells were labeled by incubation in medium with 100 μCi ^51Cr for 1 h. The cells were then washed three times to remove unincorporated isotope and resuspended at 1 × 10^5 cells per milliliter in RPMI buffer supplemented with 0.1% BSA. […] Each data point was performed in triplicate, and an IC50 was calculated from the range of concentrations described above.

[2] = molecular target: T2, perforin produced by an intact NK cell line (KHYG-1) (Homo sapiens, UniProt P14222); test: KHYG-1 cytotoxicity assay: perforin-induced lysis of K562 target cells co-incubated with KHYG-1 NK cells; type: cell-based; conditions: 20 μM, K562 targets, ± SEM
T2 construct: the perforin is delivered by a functional NK cell; endogenous in cells; host or cells: KHYG-1 NK cells (K562 target cells)
T2 sequence (P14222 22-555): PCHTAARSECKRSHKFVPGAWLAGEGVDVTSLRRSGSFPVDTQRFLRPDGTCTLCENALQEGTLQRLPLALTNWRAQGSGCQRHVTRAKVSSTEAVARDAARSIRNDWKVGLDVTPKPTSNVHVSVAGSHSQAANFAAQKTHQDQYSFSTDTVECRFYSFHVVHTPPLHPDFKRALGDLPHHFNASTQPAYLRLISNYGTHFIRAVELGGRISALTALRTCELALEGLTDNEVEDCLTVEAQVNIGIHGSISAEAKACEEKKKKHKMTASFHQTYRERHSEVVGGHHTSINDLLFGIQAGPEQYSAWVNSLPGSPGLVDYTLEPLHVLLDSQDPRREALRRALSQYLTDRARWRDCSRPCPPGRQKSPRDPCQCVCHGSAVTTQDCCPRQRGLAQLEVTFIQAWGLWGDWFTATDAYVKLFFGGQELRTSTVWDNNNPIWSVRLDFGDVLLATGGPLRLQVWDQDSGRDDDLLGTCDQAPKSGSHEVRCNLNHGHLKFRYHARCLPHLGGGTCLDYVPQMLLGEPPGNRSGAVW
Method: KHYG-1 cells were washed and resuspended in RPMI + 0.1% BSA at 4 × 10^5 cells/mL, and an amount of 50 μL of KHYG-1 cells was dispensed to each well of a 96-well V-bottom plate. RPMI (50 μL) + 0.1% BSA or 10% (final concentration) of serum was added to each well. Then test compounds were added to KHYG-1 cells at various concentrations up to 20 μM and incubated at room temperature for 20 min. 1 × 10^6 K562 target cells were labeled with 75 μCi ^51Cr in 200 μL of RPMI for 90 min at 37 °C. Cells were washed as described above and resuspended in 5 mL of RPMI + 0.1% BSA. […] The percentage of specific cytotoxicity was calculated using the following formula: [drawing 4] and expressed as the mean of triplicate assays ± standard error of the mean.

[3] = Toxicity to KHYG-1 NK cells (Trypan blue exclusion); type: cell-based, human; conditions: human, KHYG-1 NK cells; 20 μM, 4 h exposure, viability after 24 h, Trypan blue, ± SEM
Method: The toxicity assay was carried out in exactly the same manner as the killing assay above, but instead of adding the labeled K562 target cells, 100 μL of RPMI 0.1% BSA was added. Cells were incubated for 4 h at 37 °C and then washed ×3 in RPMI + 0.1% BSA. […] Trypan blue was added to each well. Viable (clear) cells and total (clear + blue) cells were counted, and the percentage of viable cells was calculated compared to DMSO treated cell control (% viability).

[4] = Aqueous solubility of parent compound and sodium salt; conditions: aqueous medium (not further specified)
[5] = 10% mouse serum, read-out: KHYG-1 inhibition (% at 20 μM), 10% serum
[6] = no serum, vs untreated control, read-out: KHYG-1 inhibition (% at 20 μM), no serum

Compound	IC50 [1] [nM]	inhibition at 20 µM [2, 5] [%]	inhibition at 20 µM [2, 6] [%]	viability at 4 h, 20 µM [3] [%]	solubility [4] [µg/mL]
O=C1NC(=S)N/C1=C/c1ccc(-c2ccc3c(c2)COC3=O)s1 [compound 4]	780	38.9 ± 3.5	53 ± 2.6	88 ± 3	23
O=C1NC(=S)N/C1=C/c1ccc(-c2ccc3c(c2)CNC3=O)s1 [compound 118]	2550	55 ± 6.5	56 ± 7.2	95 ± 3.5	0.54
CN1Cc2cc(-c3ccc(/C=C4/NC(=S)NC4=O)s3)ccc2C1=O [compound 119, (E,Z)-2-Methyl-5-(5-((5-oxo-2-thioxoimidazolidin-4-ylidene)methyl)thiophen-2-yl)isoindolin-1-one]		37 ± 2.4	42 ± 5.5	28 ± 1.5	0.13
O=C1NC(=S)N/C1=C/c1ccc(-c2ccc3c(c2)CN(CCO)C3=O)s1 [compound 125, (E,Z)-2-(2-Hydroxyethyl)-5-(5-((5-oxo-2-thioxoimidazolidin-4-ylidene)methyl)thiophen-2-yl)isoindolin-1-one]	780	24 ± 3.4	43 ± 5.8	81 ± 0.5	43
O=C1NC(=S)N/C1=C/c1ccc(-c2ccc3c(c2)CN(CCCO)C3=O)s1 [compound 126]	530	17 ± 3	48 ± 7.9	90 ± 3	1.78
CCOC(=O)N1Cc2cc(-c3ccc(/C=C4/NC(=S)NC4=O)s3)ccc2C1=O [compound 129]	550	35 ± 9.5	46 ± 5.9	93 ± 4.1	0.18
O=C1NC(=O)/C(=C\c2ccc(-c3ccc4c(c3)CNC4=O)s2)N1 [compound 136]	400	50 ± 7.1	49 ± 9.8	93 ± 3	11.6
O=C1NC(=S)N/C1=C/c1ccc(-c2ccc3c(c2)C(=O)NCC3)s1 [compound 168]	640	23 ± 7.1	51 ± 4	87 ± 4.1	0.13
O=C1NC(=S)N/C1=C/c1ccc(-c2ccc3c(c2)CNC3=O)cn1 [compound 207]	630	13 ± 3.8	43 ± 5.4	92 ± 2.6	0.59
